# Tests used:
# hNPFFR1 = molecular target: T1, hNPFFR1 (Homo sapiens, UniProt Q9GZQ6); test: Radioligand binding competition, membranes from CHO cells expressing hNPFFR1; settings: 0.015 nM [D-Tyr1[125I], N-MePhe3]-NPFF, 1 hr at 25° C., read-out: NPFF1-R Ki
# T1 construct: expressed in transfected cells; membranes
# In short: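 CHO membranes (5–10 μg protein) stably expressing hNPFFR1 or hNPFFR2 incubated 1 h at 25 °C with 0.015 nM [D-Tyr1[125I], N-MePhe3]-NPFF in HEPES pH 7.4 with Ca2+, Mg2+, 0.1% BSA. Non-specific binding defined with 10 μM RFRP-3; bound radioactivity counted after GF/B filtration.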
# C57BF6/N male mice [1] = test: Fentanyl-induced hyperalgesia, tail immersion test; assay type: in vivo; settings: FIG. 6B
# hNPFFR2 = molecular target: T2, hNPFFR2 (Homo sapiens, UniProt Q9Y5X5); test: Radioligand binding competition, membranes from CHO cells expressing hNPFFR2; settings: 0.015 nM [D-Tyr1[125I], N-MePhe3]-NPFF, 1 hr at 25° C., read-out: NPFF2-R Ki
# T2 construct: expressed in transfected cells; membranes
# Method: Competition experiments with membranes from CHO cells stably expressing hNPFFR1 and hNPFFR2 were performed essentially as described in Elhabazi, K., et al. Neuropharmacology, 2013. 75C, 164-171., Briefly, hNPFFR1 or hNPFFR2 membranes (5 to 10 μg of proteins) were incubated (1 hr at 25° C.; 0.25 mL total volume) with 0.015 nM [D-Tyr1[125I], N-MePhe3]-NPFF (Hartmann Analytic GmbH) in 50 mM HEPES (pH 7.4), 1 mM CaCl2, 1 mM MgCl2 and 0.1% bovine serum albumin. Non-specific binding was determined in the presence of 10 μM RFRP-3. Incubation was terminated by rapid filtration through a 96-well GF/B unifilter apparatus (Perkin Elmer Life and Analytical Sciences, Courtaboeuf, France). Unifilters were washed five times with binding buffer, then dried for 1 h at 65° C. After addition of 40 μL scintillation cocktail (Microscint-O, Perkin Elmer) per well, bound radioactivity was determined on a TopCount scintillation counter (Perkin Elmer).
# [2] = molecular target: T3, human NPFFR1 (hNPFFR1) receptor (Homo sapiens, UniProt Q9GZQ6); test: Human NPFFR1 evaluation using BRET biosensors in HEK-293 T cells; assay type: cell-based; settings: hNPFFR1 in HEK-293 T cells, stimulated by EC80 RFRP-3, read-out: IC50 of antagonist activity
# T3 construct: expressed in transfected cells; host or cells: HEK-293 T cells, transient co-transfection
# In short: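 HEK-293 T cells transiently co-expressing hNPFFR1, GαoB and a Gi-effector BRET biosensor pair; agonist read after 10 min compound alone, then antagonism after EC80 RFRP-3 for 10 min. IC50 from 20-point curves over 6 logs, duplicates in two independent experiments.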
# hNPFF1R = molecular target: T4, hNPFF1R (Homo sapiens, UniProt Q9GZQ6); test: Glo Sensor cAMP assay in HEK-293 expressing hNPFF1R; assay type: cell-based; settings: HEK-293 cells expressing hNPFF1R; FIG. 7
# T4 construct: expressed in transfected cells
# Method: The functional characterization of the selected compounds was performed by Glo Sensor cAMP kinetic assay, a validated approach for measuring Gαi/s activation by GPCRs (DiRaddo et al., 2014; Gilissen et al., 2015). HEK-Glo cells expressing either NPFF1 or NPFF2 receptors were suspended (10^6 cells per mF) in physiological Hepes buffer (10 mM HEPES, 0.4 mM NaH2PO4, 137.5 mM NaCl, 1.25 mM MgCl2, 1.25 mM CaCl2, 6 mM KCl, 10 mM glucose and 1 mg/mF bovine serum albumin, pH 7.4) supplemented with 1 mM D-Fuciferine. After equilibration for 2 h at 25° C., luminescence levels were recorded in real time in 96-well plates using a Flexstation^R 3 (Molecular Devices, Sunnyvale Calif., USA). Non-specific effect of the different compounds was evaluated in HEK-Glo cells without any recombinant human RF-amide receptors. To test the agonist activity on NPFF1R and NPFF2R, compounds were injected 15 minutes before addition of forskolin (0.5 μM) and readings were pursued for 90 minutes. To evaluate their antagonist properties, compounds were pre-incubated with cells for 15 minutes before prototypical agonists for NPFF1R (RFRP-3) and NPFF2R (NPFF) receptors. According to their preferential coupling to Gi/o proteins, the stimulation of NPFF1R and NPFF2R by agonists was monitored as a dose-dependent reduction in steady-state luminescence levels, reflecting the inhibition of forskolin-induced cAMP accumulation. Experiments were performed at 25° C. in the presence of 0.5 mM IBMX to prevent the degradation of cAMP by phosphodiesterases.
# C57BF6/N male mice [3] = test: Morphine-induced hyperalgesia and tolerance, tail immersion test; assay type: in vivo
# C57BF6/N male mice [4] = test: Incisional pain model, Von Frey test; assay type: in vivo; settings: morphine 2.5 mg/kg sc. alone or 1j 5 mg/kg po alone; FIG. 3B
# C57BF6/N male mice [5] = test: Neuropathic pain model (chronic constriction injury), Von Frey test; assay type: in vivo; settings: morphine 3 mg/kg sc. alone or 1j 5 mg/kg p.o. alone; FIG. 4B
# rat = settings: repeated administration of opiate analgesics; cited from earlier work
# NPFF receptor = settings: Simonin et al., PNAS (2006); cited from earlier work
# T1 sequence (Q9GZQ6 whole entry): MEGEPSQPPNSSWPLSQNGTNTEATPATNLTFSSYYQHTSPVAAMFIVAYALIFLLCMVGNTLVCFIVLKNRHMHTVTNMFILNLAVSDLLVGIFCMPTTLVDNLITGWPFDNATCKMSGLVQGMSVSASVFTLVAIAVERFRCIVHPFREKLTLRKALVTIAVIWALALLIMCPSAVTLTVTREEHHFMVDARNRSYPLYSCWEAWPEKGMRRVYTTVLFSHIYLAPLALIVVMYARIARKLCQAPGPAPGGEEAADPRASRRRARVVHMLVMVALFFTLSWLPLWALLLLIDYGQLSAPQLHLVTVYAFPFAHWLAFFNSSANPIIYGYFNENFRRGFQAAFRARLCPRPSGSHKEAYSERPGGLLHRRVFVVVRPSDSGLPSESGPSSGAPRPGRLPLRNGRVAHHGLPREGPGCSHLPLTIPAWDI
# T3 sequence (Q9GZQ6 whole entry): as above
# T2 sequence (Q9Y5X5 whole entry): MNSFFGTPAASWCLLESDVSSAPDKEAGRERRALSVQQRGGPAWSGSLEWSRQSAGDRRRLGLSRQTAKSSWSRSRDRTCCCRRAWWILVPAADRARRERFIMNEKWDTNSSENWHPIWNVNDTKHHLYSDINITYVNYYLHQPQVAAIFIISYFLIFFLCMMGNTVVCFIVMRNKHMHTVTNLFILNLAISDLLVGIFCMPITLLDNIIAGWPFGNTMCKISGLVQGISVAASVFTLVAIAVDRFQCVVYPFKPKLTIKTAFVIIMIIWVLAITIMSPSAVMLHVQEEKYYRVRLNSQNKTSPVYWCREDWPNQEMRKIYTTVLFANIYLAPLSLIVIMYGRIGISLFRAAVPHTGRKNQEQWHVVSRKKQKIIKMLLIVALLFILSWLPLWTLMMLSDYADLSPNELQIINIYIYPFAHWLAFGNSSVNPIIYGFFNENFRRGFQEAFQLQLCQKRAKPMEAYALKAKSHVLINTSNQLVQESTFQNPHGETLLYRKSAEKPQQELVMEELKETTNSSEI
# T4 sequence (Q9GZQ6 whole entry): as the sequence (Q9GZQ6 whole entry) above
compound,measurement,setting,value
"Cc1ccccc1-c1ccc(N)nc1N [Compound 1c, 3-(o-tolyl)pyridine-2,6-diamine]",Ki,hNPFFR1,23 nM
same,fentanyl hyperalgesia (hyperalgesia index d1 to d4),C57BF6/N male mice [1]; 0.2 mg/kg sc. 20 min before fentanyl 4×60 μg/kg sc.,prevented fentanyl hyperalgesia
same,fentanyl hyperalgesia (hyperalgesia index d1 to d4),C57BF6/N male mice [1]; 1 mg/kg sc. 20 min before fentanyl 4×60 μg/kg sc.,prevented fentanyl hyperalgesia
same,Ki,hNPFFR2,30000 nM
same,IC50,[2],100 to 500 nM
same,"antagonist activity: effect on dose response curve of NPVF (RFRP-3), forskolin-stimulated cAMP",hNPFF1R,antagonist activity similar as compound 1j
"CN1CC[C@]23c4c5ccc(O)c4O[C@H]2[C@@H](O)C=C[C@H]3[C@H]1C5.Cl [morphine, Morphine hydrochloride, reference compound]",Hyperalgesia index (HI) d1 to d7,"C57BF6/N male mice [3]; daily morphine 10 mg/kg s.c., 1j 5 mg/kg oral or vehicle before morphine, FIG. 2B",−16.2±2
same,peak of analgesia at day 8,"C57BF6/N male mice [3]; morphine 5 mg/kg s.c. alone or combined with 1j 5 mg/kg p.o., after chronic morphine, FIG. 2C",9±0.8
same,peak of analgesia at day 0,"C57BF6/N male mice [3]; morphine 5 mg/kg s.c. alone or combined with 1j 5 mg/kg p.o., FIG. 2C",17±0.8
same,"mechanical allodynia after paw incision (allodynia index d1-d6), drug alone",C57BF6/N male mice [4],failed to prevent significantly the mechanical allodynia
same,"mechanical allodynia after CCI (allodynia index d11-d21), drug alone",C57BF6/N male mice [5],slightly but not significantly prevented the mechanical allodynia
N^α-adamantan-1-yl-L-Arg-L-Phe-NH2 acetate [RF9],antihyperalgesic activity in vivo,rat,reversing hyperalgesia induced by the repeated administration of opiate analgesics
same,NPFF receptor antagonist potency,NPFF receptor,first nanomolar NPFF receptor antagonist
"CC(C)Oc1ccccc1-c1ccc(N)nc1N [Compound 2f, 3-(2-isopropoxyphenyl)pyridine-2,6-diamine]",Ki,hNPFFR1,11.3 nM
same,Ki,hNPFFR2,2100 nM
same,IC50,[2],100 to 500 nM
"Nc1ccc(-c2cc(Cl)ccc2Cl)c(N)n1 [Compound 1l, 3-(2,5-dichlorophenyl) pyridine-2,6-diamine]",Ki,hNPFFR1,335 nM
same,Ki,hNPFFR2,26700 nM
same,IC50,[2],100 to 500 nM
"Nc1ccc(-c2cccc(Cl)c2Cl)c(NCc2ccccc2)n1 [Compound 5d, N2-benzyl-3-(2,3-dichlorophenyl)pyridine-2,6-diamine]",Ki,hNPFFR1,84 nM
same,Ki,hNPFFR2,1900 nM
same,IC50,[2],> 1000 nM
COc1ccc(-c2ccc(N)nc2N)c(OC)c1 [Compound 2m],Ki,hNPFFR1,45.7 nM
same,Ki,hNPFFR2,1870 nM
same,IC50,[2],> 1000 nM
"Nc1ccc(-c2ccccc2Cl)c(N)n1 [Compound 1b, 3-(2-chlorophenyl)pyridine-2,6-diamine]",Ki,hNPFFR1,39 nM
same,Ki,hNPFFR2,1300 nM
same,IC50,[2],500 to 1000 nM
"CCCc1nc(N)ccc1-c1ccccc1OC [Compound 6g, 5-(2-methoxyphenyl)-6-propylpyridin-2-amine]",Ki,hNPFFR1,6.3 nM
same,Ki,hNPFFR2,470 nM
same,IC50,[2],100 to 500 nM
"Nc1ccc(-c2cccc(C(F)(F)F)c2Cl)c(N)n1 [Compound 1p, 3-(2-chloro-3-(trifluoromethyl)phenyl) pyridine-2,6-diamine]",Ki,hNPFFR1,65 nM
same,Ki,hNPFFR2,4600 nM
same,IC50,[2],100 to 500 nM
"CNc1nc(N)ccc1-c1cccc(Cl)c1Cl [Compound 5a, 3-(2,3-dichlorophenyl)-N2-methylpyridine-2,6-diamine]",Ki,hNPFFR1,81.2 nM
same,Ki,hNPFFR2,2300 nM
same,IC50,[2],> 1000 nM

# From patent publication US20210221784A1, “COMPOUNDS AND COMPOSITIONS FOR THE TREATMENT OF PAIN” (Université de Strasbourg, priority 2018, published 2021)
